# ChEMBL document CHEMBL1201862, “PubChem BioAssay data set” (2004)
# Activity calls are given as the source filed them.
# Key:
# Escherichia coli [1] = test: microbe, parasite or virus in culture
# Escherichia coli [2] = test: microbe, parasite or virus in culture; remark: listed apart in the source
# [3] = molecular target: T1, Rac GTPase-activating protein 1 (Homo sapiens, UniProt Q9H0H5); test: blockers of MgcRacGAP-driven Rac1 GTP hydrolysis – biochemical, ADP Hunter fluorescence, primary and confirmatory, confirmation (AID 624330); format: functional
# T1 sequence (Q9H0H5 whole entry): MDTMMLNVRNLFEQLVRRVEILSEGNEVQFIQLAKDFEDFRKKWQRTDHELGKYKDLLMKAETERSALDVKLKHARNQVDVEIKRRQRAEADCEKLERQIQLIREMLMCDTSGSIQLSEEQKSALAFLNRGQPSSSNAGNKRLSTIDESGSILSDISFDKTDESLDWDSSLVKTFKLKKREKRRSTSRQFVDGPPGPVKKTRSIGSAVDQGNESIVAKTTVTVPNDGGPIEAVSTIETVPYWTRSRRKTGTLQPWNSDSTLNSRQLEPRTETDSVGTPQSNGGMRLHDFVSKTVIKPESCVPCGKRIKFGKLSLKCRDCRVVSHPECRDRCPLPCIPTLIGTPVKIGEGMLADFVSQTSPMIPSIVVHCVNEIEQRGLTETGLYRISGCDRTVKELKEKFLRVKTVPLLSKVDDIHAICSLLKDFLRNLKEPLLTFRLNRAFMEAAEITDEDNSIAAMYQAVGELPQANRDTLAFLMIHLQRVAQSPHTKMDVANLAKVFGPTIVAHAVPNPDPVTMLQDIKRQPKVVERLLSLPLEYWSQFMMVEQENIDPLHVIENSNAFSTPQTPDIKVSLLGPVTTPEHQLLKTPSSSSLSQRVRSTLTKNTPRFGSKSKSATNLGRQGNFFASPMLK
# [4] = molecular target: Induced myeloid leukemia cell differentiation protein Mcl-1 (Homo sapiens, UniProt Q07820); format: functional
# Induced myeloid leukemia cell differentiation protein Mcl-1, sequence (Q07820 whole entry): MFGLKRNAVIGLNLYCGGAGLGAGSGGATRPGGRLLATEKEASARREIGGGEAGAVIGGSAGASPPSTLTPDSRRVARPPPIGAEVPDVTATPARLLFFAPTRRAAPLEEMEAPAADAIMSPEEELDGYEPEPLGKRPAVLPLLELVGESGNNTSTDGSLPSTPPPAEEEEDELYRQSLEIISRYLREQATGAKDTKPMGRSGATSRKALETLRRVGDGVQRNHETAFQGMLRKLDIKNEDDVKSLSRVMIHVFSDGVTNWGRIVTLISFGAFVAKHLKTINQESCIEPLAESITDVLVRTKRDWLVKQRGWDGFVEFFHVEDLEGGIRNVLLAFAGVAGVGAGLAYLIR
# [5] = molecular target: DNA dC->dU-editing enzyme APOBEC-3G (Homo sapiens, UniProt Q9HC16); format: functional;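 further: Dose-response counterscreen measuring inhibition of APOBEC3G DNA deaminase activity, run while confirming APOBEC3A inhibitors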
# DNA dC->dU-editing enzyme APOBEC-3G, sequence (Q9HC16 whole entry): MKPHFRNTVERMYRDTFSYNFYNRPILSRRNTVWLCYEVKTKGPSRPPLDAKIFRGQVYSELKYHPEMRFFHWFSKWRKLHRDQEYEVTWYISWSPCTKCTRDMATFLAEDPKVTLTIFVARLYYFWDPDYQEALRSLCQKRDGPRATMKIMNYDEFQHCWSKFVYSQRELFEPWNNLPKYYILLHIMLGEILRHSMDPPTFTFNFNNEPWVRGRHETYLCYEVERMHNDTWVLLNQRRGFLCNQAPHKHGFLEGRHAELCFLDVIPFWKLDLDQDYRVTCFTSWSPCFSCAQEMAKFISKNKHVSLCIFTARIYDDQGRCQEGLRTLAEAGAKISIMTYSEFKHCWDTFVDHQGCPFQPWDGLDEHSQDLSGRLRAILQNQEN
# Phosphomannomutase 2 = molecular target: T2, Phosphomannomutase 2 (Homo sapiens, UniProt O15305); test: Counter screen SAR assay for PMM2 inhibitors via a fluorescence intensity assay. [Related pubchem assays (depositor defined):AID1545, AID1574]
# T2 sequence (O15305 whole entry): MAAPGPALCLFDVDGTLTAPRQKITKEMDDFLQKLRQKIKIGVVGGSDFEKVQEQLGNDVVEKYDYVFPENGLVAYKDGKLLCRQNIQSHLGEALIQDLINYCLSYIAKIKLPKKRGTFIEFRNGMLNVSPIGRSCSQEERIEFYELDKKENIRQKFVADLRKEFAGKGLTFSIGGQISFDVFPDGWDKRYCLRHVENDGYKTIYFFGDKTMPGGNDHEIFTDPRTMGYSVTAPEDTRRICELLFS
# [6] = molecular target: T3, Mannose-6-phosphate isomerase (Homo sapiens, UniProt P34949); test: MPI enzyme activity inhibition – biochemical, fluorescence intensity, coupled assay, primary screen (AID 1209)
# T3 sequence (P34949 whole entry): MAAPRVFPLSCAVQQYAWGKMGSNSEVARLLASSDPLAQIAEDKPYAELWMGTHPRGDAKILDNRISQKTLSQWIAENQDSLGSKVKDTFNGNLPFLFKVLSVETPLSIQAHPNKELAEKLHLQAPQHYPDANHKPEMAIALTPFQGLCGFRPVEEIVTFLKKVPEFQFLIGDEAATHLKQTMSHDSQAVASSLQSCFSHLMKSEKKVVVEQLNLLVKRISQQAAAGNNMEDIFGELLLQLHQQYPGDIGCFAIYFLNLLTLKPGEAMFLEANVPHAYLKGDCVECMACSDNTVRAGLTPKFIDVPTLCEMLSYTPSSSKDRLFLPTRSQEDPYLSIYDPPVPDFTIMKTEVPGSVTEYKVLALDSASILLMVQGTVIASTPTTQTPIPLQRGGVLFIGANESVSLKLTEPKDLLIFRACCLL
# [7] = molecular target: DNA dC->dU-editing enzyme APOBEC-3A (Homo sapiens, UniProt P31941); test: Dose Response confirmation of small molecule APOBEC3A DNA Deaminase Inhibitors via a fluorescence-based single-stranded DNA deaminase assay. [Related pubchem assays (depositor defined):AID493011, AID493024]; format: functional
# DNA dC->dU-editing enzyme APOBEC-3A, sequence (P31941 whole entry): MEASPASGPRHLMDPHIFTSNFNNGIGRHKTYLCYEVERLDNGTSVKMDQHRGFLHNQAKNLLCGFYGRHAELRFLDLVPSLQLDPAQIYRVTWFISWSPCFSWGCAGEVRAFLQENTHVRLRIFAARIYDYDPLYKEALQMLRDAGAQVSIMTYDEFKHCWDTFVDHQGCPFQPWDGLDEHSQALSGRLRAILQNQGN
# Genome polyprotein = Genome polyprotein (dengue virus type 2, UniProt P29990); test: flavivirus cap methylation enzyme inhibition – biochemical, confirmation dose response, primary screen (AID 588689); format: functional
# Genome polyprotein, sequence (P29990 2492-3391 limits assumed): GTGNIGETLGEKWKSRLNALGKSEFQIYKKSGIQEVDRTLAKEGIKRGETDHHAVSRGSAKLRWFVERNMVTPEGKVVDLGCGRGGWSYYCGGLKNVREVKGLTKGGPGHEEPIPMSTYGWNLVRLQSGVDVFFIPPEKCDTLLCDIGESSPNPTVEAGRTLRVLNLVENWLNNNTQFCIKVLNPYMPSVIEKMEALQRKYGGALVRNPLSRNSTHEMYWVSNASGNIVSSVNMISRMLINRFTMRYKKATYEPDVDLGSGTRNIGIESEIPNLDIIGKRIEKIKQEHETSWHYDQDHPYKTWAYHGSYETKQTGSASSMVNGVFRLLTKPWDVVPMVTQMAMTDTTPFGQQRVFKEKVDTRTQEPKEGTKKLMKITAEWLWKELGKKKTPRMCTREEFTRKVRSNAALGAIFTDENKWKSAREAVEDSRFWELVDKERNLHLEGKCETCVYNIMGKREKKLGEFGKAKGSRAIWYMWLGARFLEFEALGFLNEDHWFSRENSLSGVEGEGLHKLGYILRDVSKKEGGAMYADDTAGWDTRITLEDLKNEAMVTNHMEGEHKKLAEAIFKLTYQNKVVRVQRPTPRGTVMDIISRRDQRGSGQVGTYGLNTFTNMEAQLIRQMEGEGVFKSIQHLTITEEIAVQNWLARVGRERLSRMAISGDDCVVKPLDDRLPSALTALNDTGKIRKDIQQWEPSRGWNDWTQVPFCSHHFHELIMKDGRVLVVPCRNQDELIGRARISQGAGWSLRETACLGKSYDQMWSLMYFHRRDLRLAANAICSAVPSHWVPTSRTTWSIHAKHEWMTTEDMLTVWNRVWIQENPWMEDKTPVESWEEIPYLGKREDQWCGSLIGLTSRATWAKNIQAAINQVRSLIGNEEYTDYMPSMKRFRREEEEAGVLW
# [8] = molecular target: T3, Mannose-6-phosphate isomerase; test: phosphomannose isomerase inhibition – biochemical, fluorescence intensity, confirmation (AID 1535)
# [9] = molecular target: T4, Carboxy-terminal domain RNA polymerase II polypeptide A small phosphatase 1 (Homo sapiens, UniProt Q9GZU7); test: CTDSP1 inhibitors, concentration-response, biochemical, absorbance readout, ultra-high-throughput screen actives (AID 540297); format: functional
# T4 sequence (Q9GZU7 whole entry): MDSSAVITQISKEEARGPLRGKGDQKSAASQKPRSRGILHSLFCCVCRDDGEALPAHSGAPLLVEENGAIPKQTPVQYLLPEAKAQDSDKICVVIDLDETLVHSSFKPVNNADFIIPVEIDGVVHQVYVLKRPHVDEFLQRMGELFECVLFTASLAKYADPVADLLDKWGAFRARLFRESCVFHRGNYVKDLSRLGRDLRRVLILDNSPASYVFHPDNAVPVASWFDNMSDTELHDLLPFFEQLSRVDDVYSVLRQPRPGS
SMILES,AC50 (Escherichia coli [1]),AC50 (Escherichia coli [2]),IC50 [3],IC50 [4],IC50 [5],IC50 (Phosphomannomutase 2),IC50 [6],IC50 [7],IC50 (Genome polyprotein),IC50 [8],IC50 [9]
CCc1ccc2c(c1)cc(CN(Cc1ccco1)C(C)=O)c1nnnn12,98.8 µM (active),24.6 µM (active),–,–,–,–,–,–,–,–,–
O=C(O)CCn1cc(C=C2C(=O)NC(=S)NC2=O)c(-c2cccc(Br)c2)n1,–,–,89.9 µM (active),2.39 µM (active),29.3 µM (active),> 100 µM (inactive),11.7 µM (active),15.8 µM (active),6.04 µM (active),9.83 µM (active),4.47 µM (active)
CC(C)C(c1nnnn1C1CCCC1)N1CCC(C(N)=O)CC1 (configuration not stated),164 µM (active),–,–,–,–,–,–,–,–,–,–
